Data set [1] has as its system JB6 P+ cells. Briefly: SRB cytotoxicity assay. Type of data set: cell-based, mouse. The conditions noted are these: for SRB Assay Log IΔ2*PSD: 72 hr, NT = no toxicity at any concentration tested. How it is done:
96-well plates were seeded with 3x10^3 JB6 P+ cells per well and allowed to attach overnight. […] Cell viability was determined using Sulforhodamine B (SRB) assay from Sigma-Aldrich according to the manufacturer’s protocol. Cellular protein content was measured using a Bio-Tek μQuant plate reader with KCJunior software.
Concentration-response curves were normalized so that the EGF positive control on each 96-well plate was set to 100% and the control wells on each plate were set to 0%. Toxicity assays (SRB and MTS) were normalized so that the control on each plate represented 100% viability. Normalization allowed for comparison of data over a range of JB6 P+ cell cultures, passages, and experimental time for the shRNA studies, as well as control for variation in the EGF response, and importantly allowed for a direct comparison to all concentration-response experiments including the toxicity assays. […] All group sizes were determined via previous studies to provide statistically meaningful data. In the soft agar assays, key results were repeated with different JB6 P+ cells to confirm the results. Similarly, the shRNA studies were conducted with three independent concentration-response curves with different JB6 P+ cell stocks. […] For two sample comparisons a t-test was utilized, and when comparing multiple samples a One-, Two-, or Three-Factor ANOVA followed by Tukey-Kramer post hoc test was utilized depending on the data. For all tests, statistical difference was donated when p < 0.05.
The IΔ2*PSD is expressed in x-axis units (log [M]) as is an IC50 and it represents the first concentration where it is expected to observe a statistical decrease in the measured signal.
Using the formula provided by GraphPad Prism or a straight line for the point-to-point graphs, the X-axis value for point Y was determined. The error is ascribed to this measurement via adding and subtracting the pooled standard deviation (PSD) to/from point Y generating point Y ± PSD. The two new points were then transformed to the X-axis units as was done for point Y creating an asymmetric error in sigmoidal plots. When the error was asymmetric, the larger error value was chosen to err on the conservative side. See S1 Fig for a pictoral explination of the method. The data is presented as IΔ2*PSD ± error.
(In general: In SRB staining, fixed cells bind dye roughly in proportion to their protein.)

In data set [2] the test system is β2-AR. Also noted: method as in as printed in each cell (43-46, 48-54, 56-58). The conditions noted are these: as described in the references; ref (43-46, 48-54, 56-58); cited from earlier work.
For data set [3], the target named is β2-AR. The conditions noted are these: given as negative log value; cited from earlier work.
For data set [4], the system named is JB6 P+ cells. Briefly: Anchorage-independent growth assay in soft agar (EGF-induced JB6 P+ colony formation). Format: cell-based, mouse. The conditions noted are these: for IC50 / minimal effective concentration: 10 ng/mL EGF; for minimal effective concentration: first concentration with expected statistical decrease, read-out: Soft Agar Assay Log IΔ2*PSD (converted). How it is done:
Ten ng/mL EGF was used to promote the anchorage-independent growth of JB6 cells. […] Plates were incubated at 37°C, 5% CO2 for 14 days. Colonies with greater than ten cells were counted manually under a microscope. […] Normalization allowed for comparison of data over a range of JB6 P+ cell cultures, passages, and experimental time for the shRNA studies, as well as control for variation in the EGF response, and importantly allowed for a direct comparison to all concentration-response experiments including the toxicity assays. […] All group sizes were determined via previous studies to provide statistically meaningful data. In the soft agar assays, key results were repeated with different JB6 P+ cells to confirm the results. Similarly, the shRNA studies were conducted with three independent concentration-response curves with different JB6 P+ cell stocks. […] For two sample comparisons a t-test was utilized, and when comparing multiple samples a One-, Two-, or Three-Factor ANOVA followed by Tukey-Kramer post hoc test was utilized depending on the data. For all tests, statistical difference was donated when p < 0.05. […] The I[…]*PSD is expressed in x-axis units (log [M]) as is an IC50 and it represents the first concentration where it is expected to observe a statistical decrease in the measured signal. […] Using the formula provided by GraphPad Prism or a straight line for the point-to-point graphs, the X-axis value for point Y was determined. The error is ascribed to this measurement via adding and subtracting the pooled standard deviation (PSD) to/from point Y generating point Y ± PSD. The two new points were then transformed to the X-axis units as was done for point Y creating an asymmetric error in sigmoidal plots. When the error was asymmetric, the larger error value was chosen to err on the conservative side. See S1 Fig for a pictoral explination of the method. The data is presented as I[…]*PSD ± error.

Data set [5] relates to JB6 P+ cells. The experiment in a line: Soft agar assay with competitive adrenergic receptor antagonists. Type of data set: cell-based. The conditions noted are these: Mus musculus, alone, CGP 12177 experiment (S2 Fig). How it is done: Ten ng/mL EGF was used to promote the anchorage-independent growth of JB6 cells. […] Plates were incubated at 37°C, 5% CO2 for 14 days. Colonies with greater than ten cells were counted manually under a microscope. Antagonists identified in our assays as ineffective at blocking EGF-mediated transformation of JB6 P+ cells yet displaying no or little toxicity were used as competitive antagonists towards carvedilol-mediated prevention of EGF-induced transformation of JB6 P+ cells.

Setting [6] is: Mus musculus, 336 h, 14 days, negative log value, read-out: Soft Agar Assay Log IC50 (converted).

Some results are limits rather than exact numbers.

Take `CC(C)(Cc1c[nH]c2ccccc12)NCC(O)COc1ccccc1C#N` (stereo not drawn) [Bucindolol]: the “SRB Assay Log IΔ2*PSD” value with JB6 P+ cells [1] is -4.84 ± 0.10 log [M]. In addition, the Toxicity label entry in the data set with JB6 P+ cells [1] (Toxic = no 10-fold difference between IΔ2*PSD from soft agar and SRB assays) is on record as “Toxic”. Further, in the data set on β2-AR [2], the “Pharmacological property at β2-AR” value was “Partial agonist for cAMP and full agonist for ERK [44, 52]”. Moreover, the “Log Kd at β2-AR” value at β2-AR [3] is -8.22 ± 0.1 [52]. Besides, the 50% inhibitory concentration (IC50) (commonly the midpoint of a concentration-inhibition curve) in the data set on JB6 P+ cells [4] (setting [6]) was 9330 nM. Also, the minimal effective concentration with JB6 P+ cells [4] (Mus musculus, 336 h, 14 days) was 1.91 µM.
Take `OC(CNCC(O)C1CCc2cc(F)ccc2O1)C1CCc2cc(F)ccc2O1` (stereo not drawn) [Nebivolol]: the IC50 with JB6 P+ cells [5] was 347 nM; with JB6 P+ cells [4] (soft agar, read-out: IC50, inhibition of EGF-mediated transformation), at most 1000 nM; with JB6 P+ cells [4] (Mus musculus, soft agar, read-out: IC50, inhibition of EGF-mediated transformation), 1090 nM; in the data set with JB6 P+ cells [4] (setting [6]), 1100 nM. Besides, the “SRB Assay Log IΔ2*PSD” value with JB6 P+ cells [1] is -4.65 ± 0.19 log [M]. Further, the “Pharmacological property at β2-AR” value in the data set on β2-AR [2] was “Biased agonist/ activates ERK [46]”. Further, at β2-AR [3], the “Log Kd at β2-AR” value was -7.91 ± 0.07 [47]. Also, the minimal effective concentration in the data set with JB6 P+ cells [4] (Mus musculus, 336 h, 14 days) was 0.479 µM. Further, in the data set on JB6 P+ cells [4] (Mus musculus, efficacy of inhibition of colony formation, reported if non-toxic), the Emax came out at 96.5 ± 7.24%.

Values taken from publication PMC6527222 (PLoS ONE, 2019).
